Measured values reported in ChEMBL document CHEMBL4414672, “Synthesis of certain benzothieno[3,2-d]pyrimidine derivatives as a selective SIRT2 inhibitors” (Eur J Med Chem, 2020).
≈ marks a conversion by molar mass, not a printed value.

What was measured:
[1] = system: HOP-92; test: Growth inhibition of human HOP92 cells at 10^-5 M incubated for 48 hrs by sulforhodamine B assay; assay type: functional; settings: HOP-92, 48 h, read-out: GI
[2] = system: IGROV-1; test: Growth inhibition of human IGROV1 cells at 10^-5 M incubated for 48 hrs by sulforhodamine B assay; assay type: functional; settings: IGROV-1, 48 h, read-out: GI
[3] = system: MCF7; test: Growth inhibition of human MCF7 cells at 10^-5 M incubated for 48 hrs by sulforhodamine B assay; assay type: functional; settings: MCF7, 48 h, read-out: GI
[4] = system: NCI/ADR-RES; test: Growth inhibition of human NCI/ADR-RES cells at 10^-5 M incubated for 48 hrs by sulforhodamine B assay; assay type: functional; settings: read-out: GI
[5] = system: HCC 2998; test: Growth inhibition of human HCC2998 cells at 10^-5 M incubated for 48 hrs by sulforhodamine B assay; assay type: functional; settings: HCC 2998, 48 h, read-out: GI
[6] = system: HL-60(TB); test: Growth inhibition of human HL-60(TB) cells at 10^-5 M incubated for 48 hrs by sulforhodamine B assay; assay type: functional; settings: HL-60, 48 h, read-out: GI
[7] = system: OVCAR-3; test: Growth inhibition of human OVCAR3 cells at 10^-5 M incubated for 48 hrs by sulforhodamine B assay; assay type: functional; settings: OVCAR-3, 48 h, read-out: GI
[8] = system: MDA-MB-231; test: Growth inhibition of human MDA-MB-231 cells at 10^-5 M incubated for 48 hrs by sulforhodamine B assay; assay type: functional; settings: MDA-MB-231, 48 h, read-out: GI
[9] = system: TK-10; test: Growth inhibition of human TK10 cells at 10^-5 M incubated for 48 hrs by sulforhodamine B assay; assay type: functional; settings: TK-10, 48 h, read-out: GI
[10] = system: CAKI-1; test: Growth inhibition of human Caki1 cells at 10^-5 M incubated for 48 hrs by sulforhodamine B assay; assay type: functional; settings: CAKI-1, 48 h, read-out: GI
[11] = system: CCRF-CEM; test: Growth inhibition of human CCRF-CEM cells at 10^-5 M incubated for 48 hrs by sulforhodamine B assay; assay type: functional; settings: read-out: GI
[12] = system: K562; test: Growth inhibition of human K562 cells at 10^-5 M incubated for 48 hrs by sulforhodamine B assay; assay type: functional; settings: K562, 48 h, read-out: GI
[13] = system: T47D; test: Growth inhibition of human T47D cells at 10^-5 M incubated for 48 hrs by sulforhodamine B assay; assay type: functional; settings: read-out: GI
[14] = system: HT-29; test: Growth inhibition of human HT-29 cells at 10^-5 M incubated for 48 hrs by sulforhodamine B assay; assay type: functional; settings: HT-29, 48 h, read-out: GI
[15] = system: NCI-H322M; test: Growth inhibition of human NCI-H322M cells at 10^-5 M incubated for 48 hrs by sulforhodamine B assay; assay type: functional; settings: read-out: GI
[16] = system: SW-620; test: Growth inhibition of human SW620 cells at 10^-5 M incubated for 48 hrs by sulforhodamine B assay; assay type: functional; settings: SW-620, 48 h, read-out: GI
[17] = system: A498; test: Growth inhibition of human A498 cells at 10^-5 M incubated for 48 hrs by sulforhodamine B assay; assay type: functional; settings: A498, 48 h, read-out: GI
[18] = system: COLO 205; test: Growth inhibition of human COLO205 cells at 10^-5 M incubated for 48 hrs by sulforhodamine B assay; assay type: functional; settings: COLO 205, 48 h, read-out: GI
[19] = system: SR; test: Growth inhibition of human SR cells at 10^-5 M incubated for 48 hrs by sulforhodamine B assay; assay type: functional; settings: read-out: GI
[20] = system: RXF 393; test: Growth inhibition of human RXF393 cells at 10^-5 M incubated for 48 hrs by sulforhodamine B assay; assay type: functional; settings: RXF 393, 48 h, read-out: GI
[21] = system: ACHN; test: Growth inhibition of human ACHN cells at 10^-5 M incubated for 48 hrs by sulforhodamine B assay; assay type: functional; settings: read-out: GI
[22] = system: 786-0; test: Growth inhibition of human 786-0 cells at 10^-5 M incubated for 48 hrs by sulforhodamine B assay; assay type: functional; settings: 786-0, 48 h, read-out: GI
[23] = system: NCI-H460; test: Growth inhibition of human NCI-H460 cells at 10^-5 M incubated for 48 hrs by sulforhodamine B assay; assay type: functional; settings: NCI-H460, 48 h, read-out: GI
[24] = system: UO-31; test: Growth inhibition of human UO31 cells at 10^-5 M incubated for 48 hrs by sulforhodamine B assay; assay type: functional; settings: UO-31, 48 h, read-out: GI
[25] = system: Hs-578T; test: Growth inhibition of human Hs 578T cells at 10^-5 M incubated for 48 hrs by sulforhodamine B assay; assay type: functional; settings: read-out: GI
[26] = system: DU-145; test: Growth inhibition of human DU145 cells at 10^-5 M incubated for 48 hrs by sulforhodamine B assay; assay type: functional; settings: DU-145, 48 h, read-out: GI
[27] = system: NCI-H23; test: Growth inhibition of human NCI-H23 cells at 10^-5 M incubated for 48 hrs by sulforhodamine B assay; assay type: functional; settings: NCI-H23, 48 h, read-out: GI
[28] = system: A549; test: Growth inhibition of human A549/ATCC cells at 10^-5 M incubated for 48 hrs by sulforhodamine B assay; assay type: functional; settings: A549, 48 h, read-out: GI
[29] = system: HCT-15; test: Growth inhibition of human HCT15 cells at 10^-5 M incubated for 48 hrs by sulforhodamine B assay; assay type: functional; settings: HCT-15, 48 h, read-out: GI
[30] = system: PC-3; test: Growth inhibition of human PC3 cells at 10^-5 M incubated for 48 hrs by sulforhodamine B assay; assay type: functional; settings: PC-3, 48 h, read-out: GI
[31] = system: OVCAR-4; test: Growth inhibition of human OVCAR4 cells at 10^-5 M incubated for 48 hrs by sulforhodamine B assay; assay type: functional; settings: OVCAR-4, 48 h, read-out: GI
[32] = system: MDA-MB-468; test: Growth inhibition of human MDA-MB-468 cells at 10^-5 M incubated for 48 hrs by sulforhodamine B assay; assay type: functional; settings: MDA-MB-468, 48 h, read-out: GI
[33] = system: HOP-62; test: Growth inhibition of human HOP62 cells at 10^-5 M incubated for 48 hrs by sulforhodamine B assay; assay type: functional; settings: HOP-62, 48 h, read-out: GI
[34] = system: HCT-116; test: Growth inhibition of human HCT116 cells at 10^-5 M incubated for 48 hrs by sulforhodamine B assay; assay type: functional; settings: HCT-116, 48 h, read-out: GI
[35] = system: NCI-H522; test: Growth inhibition of human NCI-H522 cells at 10^-5 M incubated for 48 hrs by sulforhodamine B assay; assay type: functional; settings: NCI-H522, 48 h, read-out: GI
[36] = system: SK-OV-3; test: Growth inhibition of human SKOV3 cells at 10^-5 M incubated for 48 hrs by sulforhodamine B assay; assay type: functional; settings: SK-OV-3, 48 h, read-out: GI
[37] = system: NCI-H226; test: Growth inhibition of human NCI-H226 cells at 10^-5 M incubated for 48 hrs by sulforhodamine B assay; assay type: functional; settings: NCI-H226, 48 h, read-out: GI
[38] = system: OVCAR-5; test: Growth inhibition of human OVCAR5 cells at 10^-5 M incubated for 48 hrs by sulforhodamine B assay; assay type: functional; settings: OVCAR-5, 48 h, read-out: GI
[39] = system: SN12C; test: Growth inhibition of human SN12C cells at 10^-5 M incubated for 48 hrs by sulforhodamine B assay; assay type: functional; settings: read-out: GI
[40] = system: KM12; test: Growth inhibition of human KM12 cells at 10^-5 M incubated for 48 hrs by sulforhodamine B assay; assay type: functional; settings: KM12, 48 h, read-out: GI
[41] = system: MOLT-4; test: Growth inhibition of human MOLT4 cells at 10^-5 M incubated for 48 hrs by sulforhodamine B assay; assay type: functional; settings: MOLT-4, 48 h, read-out: GI
[42] = system: OVCAR-8; test: Growth inhibition of human OVCAR8 cells at 10^-5 M incubated for 48 hrs by sulforhodamine B assay; assay type: functional; settings: OVCAR-8, 48 h, read-out: GI
[43] = system: BT-549; test: Growth inhibition of human BT549 cells at 10^-5 M incubated for 48 hrs by sulforhodamine B assay; assay type: functional; settings: BT-549, 48 h, read-out: GI
[44] = system: EKVX; test: Growth inhibition of human EKVX cells at 10^-5 M incubated for 48 hrs by sulforhodamine B assay; assay type: functional; settings: read-out: GI
[45] = system: UO-31; test: Cytotoxicity against human UO31 cells assessed as reduction in cell viability after 24 hrs by MTT assay; assay type: functional, cell-based; settings: UO-31, 24 h
[46] = system: MCF7; test: Cytotoxicity against human MCF7 cells assessed as reduction in cell viability after 24 hrs by MTT assay; assay type: functional, cell-based; settings: MCF7, 24 h

Q: What does the source list for O=C1CSC2=Nc3c(sc4ccc(Cl)cc34)C(c3cccc([N+](=O)[O-])c3)N12 (stereo unspecified)?
A: inhibition of growth at 10 µM [1]: -8.65%; inhibition of growth at 10 µM [2]: 17.3%; inhibition of growth at 10 µM [3]: 17.9%; inhibition of growth at 10 µM [4]: 12.2%; inhibition of growth at 10 µM [5]: -24.4%; inhibition of growth at 10 µM [6]: 5.48%; inhibition of growth at 10 µM [7]: 0.32%; inhibition of growth at 10 µM [8]: 10.8%; inhibition of growth at 10 µM [9]: -14.8%; inhibition of growth at 10 µM [10]: 20%; inhibition of growth at 10 µM [11]: -12%; inhibition of growth at 10 µM [12]: 6.39%; inhibition of growth at 10 µM [13]: 8.22%; inhibition of growth at 10 µM [14]: -8.35%; inhibition of growth at 10 µM [15]: 5.33%; inhibition of growth at 10 µM [16]: -3.15%; inhibition of growth at 10 µM [17]: -13.1%; inhibition of growth at 10 µM [18]: -4.05%; inhibition of growth at 10 µM [19]: 17.6%; inhibition of growth at 10 µM [20]: -10.1%; inhibition of growth at 10 µM [21]: 3.93%; inhibition of growth at 10 µM [22]: -7.37%; inhibition of growth at 10 µM [23]: -3.7%; inhibition of growth at 10 µM [24]: 38.3%; inhibition of growth at 10 µM [25]: -2.09%; inhibition of growth at 10 µM [26]: -14.2%; inhibition of growth at 10 µM [27]: 10.5%; inhibition of growth at 10 µM [28]: -1.88%; inhibition of growth at 10 µM [29]: -1.95%; inhibition of growth at 10 µM [30]: 1.11%; inhibition of growth at 10 µM [31]: 2.1%; inhibition of growth at 10 µM [32]: 4.8%; inhibition of growth at 10 µM [33]: 11%; inhibition of growth at 10 µM [34]: -0.32%; inhibition of growth at 10 µM [35]: 9.11%; inhibition of growth at 10 µM [36]: 7.65%; inhibition of growth at 10 µM [37]: 13.7%; inhibition of growth at 10 µM [38]: -6.83%; inhibition of growth at 10 µM [39]: 2.31%; inhibition of growth at 10 µM [40]: -3.54%; inhibition of growth at 10 µM [41]: 8.28%; inhibition of growth at 10 µM [42]: 0.58%; inhibition of growth at 10 µM [43]: -21.8%; inhibition of growth at 10 µM [44]: 21.2%

Q: O=c1[nH]c(=S)[nH]c(-c2ccccc2)c1Cc1c(O)ccc2ccccc12 [CAMBINOL] was tested. Which IC50 [45] did it give?
A: 98.6 µg/mL (≈ 274 µM)

Q: And the IC50 [46]?
A: 33.9 µg/mL (≈ 94.2 µM)
